Key:
Format in all cases: cell-based, human
fibroblast monolayers [1] = assay: D2O-Ficoll density gradient fractionation of ^3 H-FC labeled fibroblasts; settings: clathrin fraction d 1.12 g ml^-1; NEM 2 mM
Experimental: Early endosomal vesicles were labeled with LDL-derived ^3 H-FC by a modification of procedures described by Woodman & Warren (1991) J. Cell Biol., 112:1133-1141. Fibroblast monolayers in 10 cm dishes were washed in ice-cold PBS. The cells were labeled by incubation (2 h, 4° C.) with ^3 H-FC LDL. The monolayers were washed in PBS and brought to 31° C. for 0-15 min. The cells were then quickly chilled on ice, and cold unlabeled LDL was added (15 min, 4° C.) to displace any remaining surface-bound labeled LDL and all subsequent steps were carried out at 0-4° C.
Cells from three 10 cm dishes were used for each gradient. Monolayers were washed with 140 mM sucrose, 0.5 mM MgCl2, 1 mM EGTA, 20 mM 2-[N-morpholino]ethanesulfonic acid (MES), 70 mM potassium acetate, pH 6.6 (`vesicle buffer`) (Woodman & Warren, supra.). The cells were scraped from the dishes. Dithiothreitol (1 mm) and protease inhibitors (PMSF, 200 μg ml^-1; benzamidine 0.5 mM; soybean trypsin inhibitor 10 μg ml^-1; leupeptin 1 μg ml^-1) were added. The cells were broken with a Dounce homogenizer (15 strokes) and the homogenate centrifuged at 500× g for 5 min. Ribonuclease A (50 μg ml^-1) was added. After 30 min a second centrifugation was carried out (7000× g, 30 min). Supernatant (~2 ml) was layered on a 10 ml continuous gradient of 2% Ficoll-9% D2 O to 20% Ficoll-90% D2 O in vesicle buffer containing 1 mM dithiothreitol. Centrifugation in a Beckman SW41 rotor was carried out at 80,000× g for 16 h. Fractions (~0.6 ml) were collected dropwise and the distribution of FC label determined. Because of slight variation in fraction size between gradients, data were normalized to 20 fractions for comparison between experiments. Solution density was determined gravimetrically using 100 μl portions of each fraction. The density of a given fraction was reproducible ±0.5% between experiments.
Fibroblast monolayers were incubated with ^3 H-FC LDL for 30 min at 31° C. to predominantly label the intermediate density vesicle fraction. Cell surface LDL was removed as described above. […]

fibroblast monolayers [2] = assay: Cellular cholesterol mass determined enzymatically; settings: 2 mM NEM, 120 min, 37° C.; control 4.1 ± 0.3
Experimental: In most experiments, LDL was labeled directly with ^3 H-FC by exchange from albumin-agarose covalent complex essentially as previously described (Miida et al., Biochemistry, 29: 10469-10474 (1990)). Briefly, recrystallized human serum albumin (Sigma Chemical Co, St. Louis, Mo., USA) was covalently linked to CNBr-activated Sepharose 6B (Pharmacia). 1,2-^3 H-FC in ethanol (0.1-1.0 mCi, 10-20 μl/ml gel suspension) was added and the mixture incubated with gentle stirring for 60 mm at 37° C. The labeled suspension was centrifuged (500× g, 1 min) and the gel equilibrated (60 min, 37° C.) with unlabeled LDL prepared as described above. Finally the gel was removed by centrifugation, leaving labeled LDL in the supernatant. LDL total and FC mass was determined fluorimetrically with cholesterol oxidase (Heider & Boyett, J. Lipid Res. 19: 514-518 (1978)) in the presence or absence of cholesterol esterase. EC mass was obtained by difference. LDL ^3 H-radioactivity was measured by liquid scintillation spectrometry. FC specific activity in these experiments was 3×10^4 to 5×10^5 cpm μg^-1.
The FC and EC mass of cell monolayers was determined before and after incubation with lipoprotein as described above. Portions of the chloroform phase were analyzed for total and free cholesterol. […]
^a Increase in cellular cholesterol mass determined enzymatically ove

fibroblast monolayers [3] = assay: Cholesterol efflux from ^3 H-cholesterol labeled fibroblasts to plasma
Experimental: Fibroblast monolayers were equilibrated with ^3 H-FC-labeled native plasma or with isolated ^3 H-labeled LDL, as specified for each experiment. Following incubation, the dishes were washed with albumin-complete PBS and then (×4) with complete PBS. They were then incubated for 3 min with unlabeled plasma or lipoprotein fractions and the rate of appearance of radioactivity in the medium determined. Samples of medium (100 μl) were immediately chilled in ice water and centrifuged (10 min, 2000× g) at 0-2° C. ^3 H-cholesterol radioactivity in the supernatant was either assayed directly, or fractionated by agarose gel electrophoresis. FC efflux was linear as previously reported (Kawano et al., Biochemistry, 32: 5025-5028 (1993)).
For electrophoresis, 20 μl portions of labeled medium were added to strips of 0.75% w/v agarose in 0.025M barbital buffer (pH 8.6) and separated as previously described (Fielding et al., Biochemistry, 30: 8551-8557 (1991)). 2.5 mm gel fractions were then collected, and radioactivity measured. The location of major lipoprotein classes was determined from strips run simultaneously with whole native plasma equilibrated (60 min, 37° C.) with ^3 H-FC.
^c Percent loss of label from cells prelabeled (10 min, 37° C.

fibroblast monolayers [4] = assay: Distribution of cell-associated LDL ^3 H-FC label by release with unlabeled lipoproteins/plasma; settings: 2 mM NEM; 10 min, 37° C. with 80% v/v plasma-PBS; control 0.57 ± 0.03
Experimental: Label released by unlabeled LDL (open circles); label released by unlabeled HDL but not unlabeled LDL (closed triangles) and label released with neither LDL or HDL (closed circles) expressed as percent of total label released. LDL specific activity was […]. All fractions are defined in terms of label released by either unlabeled lipoprotein within 5 min of incubation at 37° C.
Cell monolayers equilibrated with 7% plasma-DMEM were first incubated with ^3 H-FC labeled LDL as described above. At intervals, dishes of cells were washed, then incubated with unlabeled LDL or HDL at their plasma concentrations. A fraction of cell-associated label was rapidly released; maximum recovery in the medium occurred within 10 min at 37° C. In FIG. 4, the proportions of cell label which were LDL-releasable, LDL-resistant but HDL-releasable, and resistant to both LDL and HDL are shown as a function of time.
^b Proportion of cell cholesterol label retained in the cells

## CCN1C(=O)C=CC1=O [N-ethylmaleimide]
Fibroblast monolayers [1]
  FC label in density gradient: no peak of FC label was present with clathrin at d 1.12 g ml^-1
Fibroblast monolayers [2]
  Δ total cholesterol: 0.4 ± 0.2 μg dish^-1
Fibroblast monolayers [3]
  initial rate of efflux of FC from prelabeled cells to plasma: increased several-fold
Fibroblast monolayers [3]; 2 mM NEM, 80% v/v plasma-PBS, 37° C., control 13.3 ± 0.1
  % efflux to plasma (3 min): 32.4 ± 0.2%
Fibroblast monolayers [4]
  Lipoprotein-resistant label (proportion of cell cholesterol label retained): 0.24 ± 0.03

— patent publication US5922554A, “Inhibition of cellular uptake of cholesterol” (The Regents of the University of California, priority 1996, dated 1999)
